Measured values reported in patent US9133231B2, “Compounds for treating bacterial infections” (Yissum Research Development Company of the Hebrew …, priority 2010, dated 2015).

Experiments:
Assay type in all cases: cell-based
[1] = tested on: A431 Epidermoid carcinoma cells; experiment: MTT cytotoxicity assay on A431 cells; details: 72 hours incubation, up to 10 different concentrations, FIG. 8
Description: (§1) Cytotoxicity of compound A2 on eukaryotic (A431) and prokaryotic cells (B. Subtilis) was determined by using the methylthiazolyldiphenyl-tetrazolium bromide (MTT) assay. Bacteria were grown in CH medium and samples were taken and plated on LB plates after 24 hours of growth. The plates were incubated at 37° C. for 15 hours. Colony forming units (CFU) were counted and compared to the untreated culture. Viable bacterial cells are counted as CFU/mL: colony forming units per milliliter. Each CFU is equivalent to viable cell.
In a standard procedure, the cell line (A431: epidermoid carcinoma) was incubated for 24 hours in 37° C. and 5% CO2. Subsequently, compound A2 was added to the wells in up to 10 different concentrations. Subsequent to incubation of cells with A2 for an additional 72 hours, the MTT reagent was added.

B. subtilis [2] = experiment: Mature spore formation after induced sporulation (heat shock, CFU count)
Description: Cells were grown to an OD600 of 0.5. They were then washed with synthetic medium on a membrane filter and suspended in synthetic medium lacking amino acids in order to induce them to sporulate in the presence and the absence of inhibitors. Sporulation was monitored by fluorescence microscopy.
In order to further evaluate the effect of compounds A2 on sporulation, wild type bacteria were induced to sporulate in the presence of different concentrations (from 200 to 1.8 mM) of compound A2 and the process was monitored using fluorescence microscopy. With the aim of learning about the fate of the spores formed in the previously described cultures, an aliquot from the cell culture was taken and subjected to heat treatment (heat shock). The treatment included exposure of the cultures to 80° C. for 15 minutes and further plating on LB plates. After incubating the plates for 15 hours at 37° C., the colony forming units (CFUs) were quantified and the percent of mature spore formation was calculated (FIG. 2B-C).
The influence of the timing of addition of A2 was evaluated. Bacteria were induced to sporulate and A2 (1.8 mM) was added to the cultures every two hours (at T=0, T=2, T=4 and T=6). After growing overnight the cultures were heated and plated on LB plates.

B. subtilis [3] = experiment: Growth and survival of B. subtilis growing in LB medium (CFU); details: 1.8 mM added at OD600 of 0.2, LB medium, 37° C.; FIG. 3
Description: The effect of A2 on growth and survival of B. subtilis growing in LB medium was then evaluated. Bacteria were grown overnight at 23° C. and diluted to an OD600 of 0.05. Subsequently, bacteria were further grown at 37° C. and A2 (1.8 mM) was added at an OD600 of 0.2. Bacterial growth was then continuously monitored by measuring the turbidity of the medium at 600 nm (OD600). Samples were taken and plated on LB plates. The plates were incubated at 37° C. for 15 hours. Colony forming units (CFU) were counted and compared to the untreated culture.

B. subtilis [4] = experiment: Bacterial survival in CH medium (CFU after 24 hours of growth)
Description: Bacteria were grown in CH medium and samples were taken and plated on LB plates after 24 hours of growth. The plates were incubated at 37° C. for 15 hours. Colony forming units (CFU) were counted and compared to the untreated culture.
as §1

## CC(C)C(=O)Nc1nc2c(ncn2[C@H]2CC(OC(=O)NCC(=O)NCC(=O)O)[C@@H](COC(=O)NCC(=O)NCC(=O)O)O2)c(=O)[nH]1 (stereo partly shown) [Compound A2]
[1]
  cytotoxicity to A431 cells (eukaryotic): not to A431 cells
B. subtilis [2]; 0.22 mM (lowest tested concentration), heat shock 80° C. 15 minutes, CFU, FIG. 2B-C
  reduction of the formation of mature spores: about 70%
B. subtilis [2]; Bacillus subtilis, 1.8 mM added at T=0, T=2, T=4 or T=6 after inducing sporulation, in every case, FIG. 7, read-out: inhibition of the formation of mature spores
  inhibition at 1800 µM: > 80%
B. subtilis [2]; rest of the tested concentrations (above 0.22 mM, up to 1.8 mM), FIG. 2B-C
  inhibition of sporulation: 100%
B. subtilis [3]
  number of CFUs compared to the untreated culture: substantially reduced the number of CFUs
B. subtilis [4]; CFU/mL after 24 hours of growth in CH medium, FIG. 8
  cytotoxicity to B. Subtilis cells (prokaryotic): completely cytotoxic
B. subtilis [4]; CH medium, after 24 hours of growth, increasing concentrations, FIG. 6
  CFU/mL of the treated cultures: decreases in a dose dependent fashion
